The source of these data is paper PMC8997913, “Lichen Secondary Metabolites Inhibit the Wnt/β-Catenin Pathway in Glioblastoma Cells and Improve the Anticancer Effects of Temozolomide” (Cells, 2022).

What all share (format): cell-based, human
Assay [1] relates to Wnt/β-catenin pathway target genes in U-138 MG cells. The assay is described as follows: qPCR of β-catenin and Wnt target genes, U-138 MG. As to conditions: 48 h; for expression of the Wnt target genes: co-treatment with TMZ 100 µM. On the procedure: (§1) Based on the MTT test, the lichen secondary metabolite concentrations allowing the survival of more than 70% of cells were chosen for the subsequent experiments. The compounds were added as follows: A-172 cells—atranorin 25 µM, caperatic acid 50 µM, physodic acid 25 µM, squamatic acid 25 µM, salazinic acid 50 µM, and lecanoric acid 100 µM; T98G cells—atranorin 50 µM, caperatic acid 100 µM, physodic acid 25 µM, squamatic acid 50 µM, salazinic acid 100 µM, and lecanoric acid 100 µM; U-138 MG cells—atranorin 25 µM, caperatic acid 50 µM, physodic acid 25 µM, squamatic acid 50 µM, salazinic acid 50 µM, and lecanoric acid 100 µM. As far as the TMZ treatment is concerned, it was added in the concentrations depending on the MGMT expression and methylation status, i.e., TMZ 30 µM was added to the A-172 cell line, and TMZ 100 µM was added to both the T98G and U-138 MG cell lines. In the case of the 2D culture, the cells were treated with the compounds 24 h after seeding, whereas, in regard to 3D culture, 5 days were needed to form spheroids. All subsequent analyses were performed 48 h after treatment.
(§2) The Universal RNA Purification Kit (EURx, Gdańsk, Poland) was used for total RNA isolation from the A-172, T98G, and U-138 MG cells, and the Revert-Aid First Strand cDNA Synthesis kit (Fermentas, Burlington, ON, Canada) was chosen for cDNA synthesis. Quantitative real-time PCR (qPCR) was performed using Hot FIREPol EvaGreen qPCR Mix Plus (Solis Biodyne, Tartu, Estonia) and LightCycler 96 (Roche Diagnostics GmbH, Mannheim, Germany). Primer sequences were previously published and their synthesis was performed at the Institute of Biochemistry and Biophysics, Warsaw, Poland. The protocol started with 15 min enzyme activation at 95 °C, followed by 40 cycles of 95 °C for 15 s; appropriate annealing temperature for 20 s; 72 °C for 40 s and the final elongation at 72 °C for 5 min. Melting curve analysis was used to confirm the generation of a single amplification product. TATA box-binding protein (TBP), a component of the DNA-binding protein complex TFIID, served as the endogenous RNA control. The results were expressed as N-fold differences in the gene expression relative to the TBP gene. The ΔΔCt method was used for fold-change calculation. All samples were analyzed in triplicate, and the reaction was repeated at least twice.
For orientation: Quantitative PCR measures a nucleic acid by following its amplification.

The subject of the next assay is T98G cells. The assay is described as follows: Cell cycle distribution, flow cytometry, T98G. As to conditions: 48 h. The method, then:
as §1
The Muse Cell Cycle Kit and the Muse Cell Cycle Software (both Merck, Darmstadt, Germany) were used to quantitatively measure the percentage of cells in the G0/G1, S, and G2/M phases of the cell cycle. The assay utilizes the nuclear DNA intercalating stain propidium iodide and RNAse A in a formulation. Propiodium iodide discriminates cells at different stages of the cell cycle, based on differential DNA content, while the presence of RNAse increases the specificity of DNA staining. Briefly, the cells were seeded on 6-well plates (100,000 cells per well) and incubated for 24 h. Afterward, the lichen secondary metabolites were added to the concentrations chosen based on the MTT test, allowing >70% of cell survival. 0.5% DMSO and 100 nM topotecan were used as negative and positive controls, respectively. The analysis was performed after a 48 h incubation with lichen secondary metabolites and started with washing the cells with PBS, followed by cell fixation with ice-cold ethanol and overnight incubation at −20 °C. Following steps included cell re-washing with PBS, then a 30 min incubation in the dark with propiodium iodide-RNAse A formulation, and a final analysis on Muse™ Cell Analyzer (Merck, Darmstadt, Germany).
(In general: In flow cytometry, cells or beads pass a laser one at a time.)

Assay [2] has as its system Wnt/β-catenin pathway target genes in A-172 cells. Kind of assay: qPCR of β-catenin and Wnt target genes, A-172. Conditions: A-172, 48 h. The method, then: as §1, §2
In a further assay the test system is U-138 MG cells. The assay is described as follows: Apoptosis, caspase-3/7 and 7-AAD flow cytometry, U-138 MG. Conditions: 48 h. The method, then:
as §1
The fluorescent-based analysis of apoptosis using Muse® Caspase-3/7 Kit was performed in order to analyze the percentage of live, early, and late apoptotic; total apoptotic; and dead cells in A-172, T98G, and U-138 MG GBM cells treated with lichen secondary metabolites. The principle of the method relies on the measurement of the activity of executioner caspases, i.e., caspase-3 and caspase-7, as well as analyzing the integrity of the cell membrane with the use of a dead cell marker 7-AAD. Cell seeding and treatment followed the same protocol as for cell cycle or ROS generation analysis, while the subsequent procedures were performed according to the manufacturer’s recommendations.

Where [3] appears, read: mRNA vs DMSO control, single agent.
Where [4] appears, read: mRNA vs DMSO control, single agent, (TMZ 30 µM).

With `Cc1cc(O)c(C=O)c2c1C(=O)Oc1c(CO)c(O)c3c(c1O2)C(O)OC3=O` (stereo not shown) [Salazinic acid], the “expression of the Wnt target genes” value in assay [1] was “huge downregulatory effect”. In assay [1] (setting [3]), the “BIRC5 expression” value was “diminished” and the “CCND1 expression” value is listed as “downregulated CCND1 expression by around half”. In addition, in the assay with T98G cells, the “number of cells in G0/G1 phases vs control” value is given as “slightly increased”, the “number of cells in S phase vs control” value is reported as “reduced” and the “percentage of cells in G2/M phases vs control” value was “diminished”.
Turning to `COc1cc(C)c(C(=O)Oc2cc(C)c(C(=O)O)c(O)c2C)c(O)c1C(=O)O` [Squamatic acid], in assay [2] (co-treatment with TMZ 30 µM), the “CCND1 expression” value is listed as “upregulation”. In assay [2] (setting [3]), the “BIRC5 expression” value is on record as “diminished”. The “Axin2 expression” value in assay [2] (setting [4]) and in assay [1] (setting [3]) was “downregulated” each time.
Consider `CCCCCCCCCCCCCCC(C(=O)O)C(O)(CC(=O)OC)C(=O)O` (stereo not shown) [Caperatic acid], for which the “NEDD9 expression” value is given as “downregulated” in assay [2] (setting [3]) and “downregulated” in assay [1] (mRNA vs DMSO control, single agent, TMZ 100 µM). Further, the “Axin2 expression” value in assay [2] (setting [4]) and in assay [1] (setting [3]) was “downregulated” in each case. Further, the “expression of the Wnt target genes” value in assay [1] was “huge downregulatory effect”. Besides, the “number of cells in G0/G1 phases vs control” value with T98G cells is “diminished”. Moreover, the “effect on apoptosis” value in the assay on U-138 MG cells is on record as “anti-apoptotic effect”.
Regarding `Cc1cc(OC(=O)c2c(C)cc(O)cc2O)cc(O)c1C(=O)O` [Lecanoric acid], the “c-MYC expression” value in assay [2] (setting [4]) is “upregulated”. Besides, in the assay with U-138 MG cells (100 µM), the “number of late apoptotic cells vs control” value is “increased” and the “percentage of early apoptotic cells vs control” value was “decreased”.
`COC(=O)c1c(C)cc(OC(=O)c2c(C)cc(O)c(C=O)c2O)c(C)c1O` [Atranorin]: the “Axin2 expression” value in assay [2] (setting [4]) is given as “downregulated”. For the same molecule, the “Axin2 expression” value in assay [1] (setting [3]) was “downregulated”. In addition, in the assay with T98G cells, the “number of cells in G0/G1 phases vs control” value is “slightly increased” and the “number of cells in S phase vs control” value is “reduced”. Moreover, the “effect on apoptosis” value with U-138 MG cells is reported as “anti-apoptotic effect”.
